Source: patent US20020094522A1, “Means and methods for monitoring non-nucleoside reverse transcriptase inhibitor antiretroviral therapy and guiding therapeutic decisions in the treatment of HIV/AIDS” (priority 2000, published 2002)
Read-outs that look alike come from different tables or passages of the source.

Key:
K103N-G190A-RTV = test system: K103N-G190A-RTV
Text: (§1) The resistance test vectors containing a functional luciferase gene cassette were constructed and host cells were transfected with the resistance test vector DNA. The resistant test vectors contained patient-derived reverse transcriptase and protease sequences that were either susceptible or resistant to the antiretroviral agents, such as nucleoside reverse transcriptase inhibitors, non-nucleoside reverse transcriptase inhibitors and protease inhibitors. The resistance test vector viral particles produced by transfecting the resistance test vector DNA into host cells, either in the presence or absence of protease inhibitors, were used to infect target host cells grown either in the absence of NRTI or NNRTI or in the presence of increasing concentrations of the drug. The amount of luciferase activity produced in infected target host cells in the presence of drug was compared to the amount of luciferase produced in infected target host cells in the absence of drug. Drug resistance was measured as the amount of drug required to inhibit by 50% the luciferase activity detected in the absence of drug (inhibitory concentration 50%, IC50). The IC50 values were determined by plotting percent drug inhibition vs. log10 drug concentration.
(§2) Host cells were seeded in 10-cm-diameter dishes and were transfected several days after plating with resistance test vector plasmid DNA and the envelope expression vector. Transfections were performed using a calcium-phosphate precipitation procedure. The cell culture media containing the DNA precipitate was replaced with fresh medium, from one to 24 hours, after transfection. Cell culture media containing resistance test vector viral particles was harvested one to four days after transfection and was passed through a […] filter before being stored at −80° C. HIV capsid protein (p24) levels in the harvested cell culture media were determined by an EIA method as described by the manufacturer (SIAC; Frederick, Md.). Before infection, target cells (293 and 293/T) were plated in cell culture media. Control infections were performed using cell culture media from mock transfections (no DNA) or transfections containing the resistance test vector plasmid DNA without the envelope expression plasmid. One to three or more days after infection the media was removed and cell lysis buffer (Promega) was added to each well. […] The inhibitory effect of the drug was determined using the following equation: […]
(§3) where RLUluc [drug] is the relative light unit of luciferase activity in infected cells in the presence of drug and RLUluc is the Relative Light Unit of luciferase activity in infected cells in the absence of drug. IC50 values were obtained from the sigmoidal curves that were generated from the data by plotting the percent inhibition of luciferase activity vs. the log10 drug concentration.
(§4) The K101E, K103N and G190A mutations were introduced alone and in combination into resistance test vectors using the mega-primer method for site-directed mutagenesis (Sakar and Sommar, Ibid.).

K101E-G190A-RTV = test system: K101E-G190A-RTV
Text: as §1, §2, §3, §4

[1] = test system: RTV-B clone 1 (patient sample B); assay: Phenotypic susceptibility assay, RTV-B clone 1; format: cell-based, HIV-1; conditions: values <1 = increased susceptibility
Text: as §1
as §2, with “Md.).” for “Md.). Before infection, target cells (293 and 293/T) were plated in cell culture media. Control infections were performed using cell culture media from mock transfections (no DNA) or transfections containing the resistance test vector plasmid DNA without the envelope expression plasmid. One to three or more days after infection the media was removed and cell lysis buffer (Promega) was added to each well.”

[2] = test system: RTV-1033 (patient sample 98-1033); assay: Phenotypic susceptibility assay, RTV-1033; format: cell-based, HIV-1; conditions: RTV-1033, patient-derived pool
Method: (§5) Transfections were performed using a calcium-phosphate precipitation procedure. […] Cell lysates were assayed for luciferase activity (FIG. 3).
(§6) The drug inhibition curves are shown in (FIG. 3).
A resistance test vector was constructed as described in Example 1 from a patient sample designated 98-1033. […] Isolation of viral RNA and RT/PCR was used to generate a patient derived segment that comprised viral sequences coding for all of PR and aa 1-313 of RT. The PDS was inserted into an indicator gene viral vector to generate resistance test vectors designated RTV-1033 and RTV-757. RTV-1033 and RTV-757 were then tested in a phenotypic assay to determine accurately and quantitatively the level of susceptibility to a panel of anti-retroviral drugs. […] An IC50 was determined for the resistance test vector pool for each drug tested. The pattern of susceptibility to all of the drugs tested was examined and compared to known patterns of susceptibility.

E138A-Y188L-RTV = assay: Phenotypic susceptibility assay, E138A-Y188L-RTV; format: cell-based, HIV-1; conditions: site directed mutant
Text: as §1, with “Drug resistance was measured as the amount of drug required to inhibit by 50% the luciferase activity detected in the absence of drug (inhibitory concentration 50%, IC50).” left out
Host cells were seeded in 10-cm-diameter dishes and were transfected several days after plating with resistance test vector plasmid DNA and the envelope expression vector. […] HIV capsid protein (p24) levels in the harvested cell culture media were determined by an EIA method as described by the manufacturer (SIAC; Frederick, Md.). […] The inhibitory effect of the drug was determined using the following equation: […]
The E138A mutation alone and in combination with Y188L was introduced into resistance test vectors using the megaprimer method for site-directed mutagenesis (Sakar and Sommar, Ibid.). Resistance test vectors containing the E138A mutation (E138A-RTV) or the E138 mutation along with the […] mutation (E138A-Y188L-RTV) were then tested using the phenotypic assay described earlier and the results were compared to those determined using a genetically defined resistance test vector that was wild type at positions 188 and 138.

[3] = test system: T66I integrase site-directed mutant resistance test vector; assay: Phenotypic susceptibility assay, T66I integrase mutant vector; format: cell-based, HIV; conditions: {}
Method: as §5, §6
A resistance test vector containing the threonine to isoleucine mutation at position 66 of the integrase protein (T66I) was constructed and tested using the phenotypic assay described earlier.

[4] = test system: K101E-RTV (HIV reverse transcriptase K101E); assay: Phenotypic susceptibility assay, K101E-RTV; format: cell-based, HIV-1
Text: as §1, §2, §3
The K101E and G190S mutations were introduced alone and in combination into resistance test vectors using the mega-primer method for site-directed mutagenesis (Sakar and Sommar, Ibid.). Resistance test vectors containing the K101E mutation (K101E-RTV), the G190S mutation (G190S-RTV) were then tested using the phenotypic assay described earlier and the results were compared to those determined using a genetically defined resistance test vector that was wild type at positions 101 and 190. […]

Y181C-F227L-RTV = assay: Phenotypic susceptibility assay, Y181C-F227L-RTV; format: cell-based, HIV-1; conditions: values <1 = increased susceptibility
Text: as §1
as §2, with “Md.).” for “Md.). Before infection, target cells (293 and 293/T) were plated in cell culture media. Control infections were performed using cell culture media from mock transfections (no DNA) or transfections containing the resistance test vector plasmid DNA without the envelope expression plasmid. One to three or more days after infection the media was removed and cell lysis buffer (Promega) was added to each well.”

[5] = test system: Y188L-RTV (HIV reverse transcriptase Y188L); assay: Phenotypic susceptibility assay, Y188L-RTV; format: cell-based, HIV-1; conditions: site directed mutant
Text: as §1
as §2, with “Md.).” for “Md.). Before infection, target cells (293 and 293/T) were plated in cell culture media. Control infections were performed using cell culture media from mock transfections (no DNA) or transfections containing the resistance test vector plasmid DNA without the envelope expression plasmid. One to three or more days after infection the media was removed and cell lysis buffer (Promega) was added to each well.”

K101E-G190S-RTV = assay: Phenotypic susceptibility assay, K101E-G190S-RTV; format: cell-based, HIV-1
Text: as §1, §2, §3
The K101E and G190S mutations were introduced alone and in combination into resistance test vectors using the mega-primer method for site-directed mutagenesis (Sakar and Sommar, Ibid.). Resistance test vectors containing the K101E mutation (K101E-RTV), the G190S mutation (G190S-RTV) were then tested using the phenotypic assay described earlier and the results were compared to those determined using a genetically defined resistance test vector that was wild type at positions 101 and 190.

V106A-Y181C-RTV = assay: Phenotypic susceptibility assay, V106A-Y181C-RTV; format: cell-based, HIV-1; conditions: site directed mutant
Text: as §1
as §2, with “Md.).” for “Md.). Before infection, target cells (293 and 293/T) were plated in cell culture media. Control infections were performed using cell culture media from mock transfections (no DNA) or transfections containing the resistance test vector plasmid DNA without the envelope expression plasmid. One to three or more days after infection the media was removed and cell lysis buffer (Promega) was added to each well.”

V106A-Y181C-F227L-RTV = assay: Phenotypic susceptibility assay, V106A-Y181C-F227L-RTV; format: cell-based, HIV-1; conditions: site directed mutant
Text: as §1
as §2, with “Md.).” for “Md.). Before infection, target cells (293 and 293/T) were plated in cell culture media. Control infections were performed using cell culture media from mock transfections (no DNA) or transfections containing the resistance test vector plasmid DNA without the envelope expression plasmid. One to three or more days after infection the media was removed and cell lysis buffer (Promega) was added to each well.”

[6] = printed in the K101E-RTV sentence of b302, second set of values
[7] = values <1 = increased susceptibility

## Cc1ccnc2c1NC(=O)c1cccnc1N2C1CC1 [nevirapine]
K103N-G190A-RTV
  fold loss of susceptibility compared to wild type control RTV: greater than 800 fold
K101E-G190A-RTV
  fold loss of susceptibility compared to wild type control RTV: greater than 800 fold
[1]
  fold change in susceptibility (IC50): 640 fold
[2]
  fold decrease in susceptibility (IC50): greater than 800 fold
E138A-Y188L-RTV
  fold loss of susceptibility compared to wild type control RTV: greater than 800 fold
[3]
  increase in susceptibility compared to wild type control RTV: 8-10 fold
[4]; [6]
  fold loss of susceptibility compared to wild type control RTV: 55 fold
[4]; {}
  fold loss of susceptibility compared to wild type control RTV: 12 fold
Y181C-F227L-RTV
  fold change in susceptibility compared to wild type control RTV: 285 fold
[5]
  fold loss of susceptibility compared to wild type control RTV: greater than 800 fold
K101E-G190S-RTV
  fold change in susceptibility compared to wild type control RTV: greater than 800 fold
K101E-G190S-RTV; [7]
  fold change in susceptibility compared to wild type control RTV: 75 fold
V106A-Y181C-RTV
  fold loss of susceptibility compared to wild type control RTV: greater than 800 fold
V106A-Y181C-F227L-RTV
  fold loss of susceptibility compared to wild type control RTV: greater than 800 fold

## O=C1Nc2ccc(Cl)cc2[C@@](C#CC2CC2)(C(F)(F)F)O1 [efavirenz]
K103N-G190A-RTV
  fold loss of susceptibility compared to wild type control RTV: 215 fold
K101E-G190A-RTV
  fold loss of susceptibility compared to wild type control RTV: 120 fold
[1]
  fold change in susceptibility (IC50): 250 fold
[2]
  fold decrease in susceptibility (IC50): 200 fold
E138A-Y188L-RTV
  fold loss of susceptibility compared to wild type control RTV: 88 fold
[3]
  increase in susceptibility compared to wild type control RTV: 8-10 fold
[4]; [6]
  fold loss of susceptibility compared to wild type control RTV: 30 fold
[4]; {}
  fold loss of susceptibility compared to wild type control RTV: 5 fold
Y181C-F227L-RTV
  fold change in susceptibility compared to wild type control RTV: 0.99 fold
[5]
  fold loss of susceptibility compared to wild type control RTV: 110 fold
K101E-G190S-RTV
  fold change in susceptibility compared to wild type control RTV: greater than 250 fold
K101E-G190S-RTV; [7]
  fold change in susceptibility compared to wild type control RTV: 7.6 fold
V106A-Y181C-RTV
  fold loss of susceptibility compared to wild type control RTV: 4 fold
V106A-Y181C-F227L-RTV
  fold loss of susceptibility compared to wild type control RTV: 12 fold

## CC(C)Nc1cccnc1N1CCN(C(=O)c2cc3cc(NS(C)(=O)=O)ccc3[nH]2)CC1 [delavirdine]
K103N-G190A-RTV
  fold loss of susceptibility compared to wild type control RTV: 40 fold
K101E-G190A-RTV
  fold loss of susceptibility compared to wild type control RTV: 2 fold
[1]
  fold change in susceptibility (IC50): 0.55 fold
[2]
  fold decrease in susceptibility (IC50): 30 fold
E138A-Y188L-RTV
  fold loss of susceptibility compared to wild type control RTV: 75 fold
[3]
  increase in susceptibility compared to wild type control RTV: 8-10 fold
[4]; {}
  fold loss of susceptibility compared to wild type control RTV: 5 fold
Y181C-F227L-RTV
  fold change in susceptibility compared to wild type control RTV: 0.89 fold
[5]
  fold loss of susceptibility compared to wild type control RTV: 9 fold
K101E-G190S-RTV
  fold change in susceptibility compared to wild type control RTV: 1.4 fold
K101E-G190S-RTV; [7]
  fold change in susceptibility compared to wild type control RTV: 0.5 fold
V106A-Y181C-RTV
  fold loss of susceptibility compared to wild type control RTV: 100 fold
V106A-Y181C-F227L-RTV
  fold loss of susceptibility compared to wild type control RTV: 50 fold
